The record followed here is BindingDB's records for patent US20240335420 (Eurofarma, 2024).

The term pIC50 denotes the IC50 on a negative log10 scale, so that one unit is a factor of ten. Lower therefore signals a high IC50.

Test [1] has as its target Sodium channel protein type 10 subunit alpha (Homo sapiens, UniProt Q9Y5Y9). The test is described as follows: In Vitro Assay (Protocol 1). How it is done: (§1) Compounds of Formula (I), were diluted in eight concentrations in the extracellular solution composed of physiological saline, buffered with HEPES (mM): NaCl, 137; KCl, 4; CaCl2, 3.8; MgCl2, 1; HEPES, 10; Glucose, 10; pH 7.4. The […], 50; CsF, 90; MgCl2, 5; EGTA, 5; HEPES, 10; pH 7.2. The duration of exposure of each compound with the cells expressing Nav 1.7 or Nav 1.8 was at least five minutes and the assays were performed at room temperature.The measurements of the sodium currents of Nav 1.8 and Nav 1.7 were obtained using the voltage protocols described below:Protocol 1: A holding voltage of −90 mV was established followed by a voltage phase of 200 ms to −120 mV, followed by a voltage step of 10 mV for 1 second for Nav 1.8 or 0 mV for Nav 1.7, followed by a step of −100 mV for 20 ms, followed by a step of 20 ms for 10 mV for Nav 1.8 or 0 mV for Nav 1.7 (TP1A) before returning to the holding voltage of −90 mV.Protocol 2: A holding voltage of −100 mV was established followed by an inactivation voltage step at −40 mV for 8 seconds, followed by a −100 mV step for […], followed by a 20 ms step for 10 mV for Nav 1.8 or 0 mV for Nav 1.7 (TP1A) before returning to the holding voltage of −100 mV.Protocols were repeated at a frequency of 0.1 Hz and current amplitude was quantified over the TP1A phase log. The variation in the peak amplitude of the current was evaluated according to the Formula described below, after exposure of the cells expressing the channels, at each concentration of the different compounds:%Block=(1-(ITP1A,molecule/ITP1A,basal)×100%,where |TP1A, basal, and |TP1A, molecule represent the entry peaks of sodium currents into TP1A prior to exposure to the compound and in the presence of the compound, respectively.

The target of test [2] is Sodium channel protein type 9 subunit alpha (Homo sapiens, UniProt Q15858). The experiment in a line: In Vitro Assay (Protocol 1). On the procedure:
as §1

pIC50: −log10 of the molar value. Some results are limits rather than exact numbers.

Sodium channel protein type 10 subunit alpha, sequence (Q9Y5Y9 whole entry): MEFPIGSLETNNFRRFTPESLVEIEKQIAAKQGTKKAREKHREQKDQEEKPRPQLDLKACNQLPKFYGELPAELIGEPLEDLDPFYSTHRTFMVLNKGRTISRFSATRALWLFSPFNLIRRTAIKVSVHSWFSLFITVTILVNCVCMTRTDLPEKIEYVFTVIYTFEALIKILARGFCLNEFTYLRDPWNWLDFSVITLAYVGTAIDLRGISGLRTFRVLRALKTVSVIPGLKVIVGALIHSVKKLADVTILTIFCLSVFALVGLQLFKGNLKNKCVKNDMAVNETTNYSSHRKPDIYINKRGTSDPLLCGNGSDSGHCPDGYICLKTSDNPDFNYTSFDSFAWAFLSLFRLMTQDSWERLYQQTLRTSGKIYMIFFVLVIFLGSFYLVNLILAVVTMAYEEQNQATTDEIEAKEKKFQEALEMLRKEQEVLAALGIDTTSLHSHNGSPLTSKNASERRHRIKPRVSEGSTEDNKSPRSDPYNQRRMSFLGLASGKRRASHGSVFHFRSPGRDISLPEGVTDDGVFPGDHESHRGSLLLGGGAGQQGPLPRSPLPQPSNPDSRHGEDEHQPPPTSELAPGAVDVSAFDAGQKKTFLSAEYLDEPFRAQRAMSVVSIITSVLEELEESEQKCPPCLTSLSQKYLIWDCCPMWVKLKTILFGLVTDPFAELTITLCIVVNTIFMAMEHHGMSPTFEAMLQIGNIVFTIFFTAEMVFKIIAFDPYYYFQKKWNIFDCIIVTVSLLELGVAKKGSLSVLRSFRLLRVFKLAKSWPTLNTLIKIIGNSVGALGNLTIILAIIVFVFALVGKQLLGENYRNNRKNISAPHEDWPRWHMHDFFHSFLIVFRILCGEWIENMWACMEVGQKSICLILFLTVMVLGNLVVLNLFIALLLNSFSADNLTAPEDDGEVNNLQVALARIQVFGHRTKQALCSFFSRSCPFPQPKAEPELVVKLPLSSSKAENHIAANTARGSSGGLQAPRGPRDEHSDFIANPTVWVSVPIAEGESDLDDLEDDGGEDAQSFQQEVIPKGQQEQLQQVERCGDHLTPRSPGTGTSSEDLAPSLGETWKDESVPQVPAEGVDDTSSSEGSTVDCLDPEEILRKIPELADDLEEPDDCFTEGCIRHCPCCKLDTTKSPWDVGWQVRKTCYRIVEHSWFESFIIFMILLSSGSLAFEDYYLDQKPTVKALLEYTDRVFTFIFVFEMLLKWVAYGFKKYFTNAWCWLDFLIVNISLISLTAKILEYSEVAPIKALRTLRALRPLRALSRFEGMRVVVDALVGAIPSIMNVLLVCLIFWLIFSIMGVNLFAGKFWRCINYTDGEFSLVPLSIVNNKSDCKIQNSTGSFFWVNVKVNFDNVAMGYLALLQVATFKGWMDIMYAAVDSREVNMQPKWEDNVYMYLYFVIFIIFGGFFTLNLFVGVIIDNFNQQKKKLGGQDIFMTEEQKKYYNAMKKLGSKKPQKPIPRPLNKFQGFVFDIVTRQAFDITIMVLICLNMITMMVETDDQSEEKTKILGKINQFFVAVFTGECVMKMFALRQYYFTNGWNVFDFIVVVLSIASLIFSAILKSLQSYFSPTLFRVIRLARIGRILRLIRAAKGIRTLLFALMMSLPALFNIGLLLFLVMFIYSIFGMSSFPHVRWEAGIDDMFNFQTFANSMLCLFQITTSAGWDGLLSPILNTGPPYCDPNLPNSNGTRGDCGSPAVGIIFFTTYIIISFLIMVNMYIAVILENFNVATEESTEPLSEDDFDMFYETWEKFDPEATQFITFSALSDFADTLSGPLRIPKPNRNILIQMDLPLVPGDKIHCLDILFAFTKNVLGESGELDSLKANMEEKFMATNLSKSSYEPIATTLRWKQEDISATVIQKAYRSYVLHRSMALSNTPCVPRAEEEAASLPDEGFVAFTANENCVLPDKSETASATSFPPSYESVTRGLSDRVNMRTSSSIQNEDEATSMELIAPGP
Sodium channel protein type 9 subunit alpha, sequence (Q15858 whole entry): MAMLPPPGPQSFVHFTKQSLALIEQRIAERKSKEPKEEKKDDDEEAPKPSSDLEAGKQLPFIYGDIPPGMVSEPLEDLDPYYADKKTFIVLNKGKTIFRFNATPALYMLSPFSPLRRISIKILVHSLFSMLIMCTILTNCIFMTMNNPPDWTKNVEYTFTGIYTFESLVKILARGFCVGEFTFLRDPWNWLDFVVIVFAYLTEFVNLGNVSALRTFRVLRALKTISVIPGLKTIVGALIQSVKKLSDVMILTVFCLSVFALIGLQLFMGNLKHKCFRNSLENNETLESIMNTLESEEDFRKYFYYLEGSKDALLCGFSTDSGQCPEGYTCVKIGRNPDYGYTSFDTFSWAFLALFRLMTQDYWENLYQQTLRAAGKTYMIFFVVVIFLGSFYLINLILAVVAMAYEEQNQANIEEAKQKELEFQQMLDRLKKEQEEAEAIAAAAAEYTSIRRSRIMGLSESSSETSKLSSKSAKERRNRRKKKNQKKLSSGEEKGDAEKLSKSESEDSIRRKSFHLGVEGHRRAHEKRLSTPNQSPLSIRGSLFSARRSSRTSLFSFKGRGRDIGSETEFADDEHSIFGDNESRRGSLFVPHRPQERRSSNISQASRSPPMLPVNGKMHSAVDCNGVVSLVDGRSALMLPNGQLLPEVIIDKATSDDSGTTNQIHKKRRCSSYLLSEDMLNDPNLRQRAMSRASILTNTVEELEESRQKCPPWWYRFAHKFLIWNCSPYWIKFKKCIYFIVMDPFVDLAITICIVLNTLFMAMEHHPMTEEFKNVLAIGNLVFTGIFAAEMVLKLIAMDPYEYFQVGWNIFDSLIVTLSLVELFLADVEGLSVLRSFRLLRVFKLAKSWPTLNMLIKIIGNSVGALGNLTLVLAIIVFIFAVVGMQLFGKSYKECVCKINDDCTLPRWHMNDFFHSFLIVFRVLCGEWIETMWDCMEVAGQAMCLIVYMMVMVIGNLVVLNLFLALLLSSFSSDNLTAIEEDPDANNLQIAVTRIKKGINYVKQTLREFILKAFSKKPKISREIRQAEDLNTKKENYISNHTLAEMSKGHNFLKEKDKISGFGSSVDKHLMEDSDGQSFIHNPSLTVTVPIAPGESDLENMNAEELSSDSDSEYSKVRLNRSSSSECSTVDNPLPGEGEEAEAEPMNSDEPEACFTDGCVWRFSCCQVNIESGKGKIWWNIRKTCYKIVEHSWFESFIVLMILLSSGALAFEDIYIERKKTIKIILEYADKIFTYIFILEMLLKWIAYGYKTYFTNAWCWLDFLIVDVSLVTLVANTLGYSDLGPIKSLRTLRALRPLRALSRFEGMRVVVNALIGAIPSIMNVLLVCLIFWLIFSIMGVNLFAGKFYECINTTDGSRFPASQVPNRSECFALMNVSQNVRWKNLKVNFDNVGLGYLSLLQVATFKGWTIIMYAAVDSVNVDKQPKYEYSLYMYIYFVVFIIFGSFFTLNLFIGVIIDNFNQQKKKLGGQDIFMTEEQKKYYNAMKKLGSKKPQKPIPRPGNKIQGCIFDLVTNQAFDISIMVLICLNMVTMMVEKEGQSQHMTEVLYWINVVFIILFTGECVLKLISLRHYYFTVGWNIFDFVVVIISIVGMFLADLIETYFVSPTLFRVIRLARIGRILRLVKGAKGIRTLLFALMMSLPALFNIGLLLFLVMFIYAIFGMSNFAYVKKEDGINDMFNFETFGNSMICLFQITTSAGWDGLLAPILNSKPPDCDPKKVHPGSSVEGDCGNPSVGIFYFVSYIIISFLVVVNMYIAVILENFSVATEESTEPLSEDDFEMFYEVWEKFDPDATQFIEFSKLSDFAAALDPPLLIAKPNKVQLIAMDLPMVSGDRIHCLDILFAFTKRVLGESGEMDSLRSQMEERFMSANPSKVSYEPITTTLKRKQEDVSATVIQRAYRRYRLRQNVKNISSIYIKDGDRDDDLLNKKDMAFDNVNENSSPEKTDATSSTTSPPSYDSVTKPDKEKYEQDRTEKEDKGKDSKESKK

As for `O=C(N/N=C/c1cccs1)c1ccc(-c2ccc(Cl)cc2)o1` [US20240335420, Compound 1], the pIC50 in test [1] and in test [2] was under 4.52 each time.

On to `COc1cc(/C=N/NC(=O)c2cccc(-c3ccc(Cl)cc3)n2)cc(OC)c1` [US20240335420, Compound 10], for which the pIC50 was 5.86 in test [1] and 6.44 in test [2].
